2 compounds from patent US20040229356A1, “In vitro mass production of human erythroid cells from the blood of normal donors and thalassemic patients” (ISTITUTO SUPERIORE DI SANITA, priority 2003, published 2004) can be followed below.

Assay [1] concerns CD34^+ cells. The assay can be described thus: Proliferative-phase liquid culture of CD34+ cells (total cell number, benzidine staining). It counts as cell-based, human. The following applies: day 8 of proliferative phase; estradiol or dexamethasone added to GFs (SCF, IL-3, EPO). On the procedure:
Light-density cells were collected, washed with Hank's basal salt solution supplemented with 1% (w/v) bovine serum albumin, and either cultured directly or cryopreserved in 10% dimethyl sulfoxide (Sigma, St. Louis, Mo.). Frozen cadaveric marrow cells obtained from Northwest Tissue Center, Puget Sound Blood Bank (Seattle, Wash.) were thawed, washed, and incubated overnight in IMDM with 10% fetal calf serum on tissue culture plates to remove adherent cells. […]
Cell morphology was analyzed according to standard criteria on cytocentrifuged (Shandon, Astmoor, England) smears stained with May-Grumwald-Giemsa. […] The cell antigenic profile was analyzed by flow cytometry with a Coulter Elite ESP Cell Sorter (Coulter, Miami, Fla.) according to standard protocols. […] Cells incubated with the corresponding, irrelevant, isotype-matched antibodies were used for gating nonspecific fluorescence and dead cells were excluded by propidium iodide staining (5 μg/mL) (Sigma).
The total cell number observed in cultures of CD34^+ cells cultured for up to 14 days in the presence of the combination of SCF, IL-3 and EPO (growth factors, GFs), alone or with the further addition of estradiol or of dexamethasone, is presented in FIG. 1. In all three conditions analyzed, the total cell number per culture rose from 0.1×10^6 cells at day 0 to 10×10^6 at day 7 and continued to increase, reaching up to 100×10^6 by day 13. […]

In assay [2] the test system is CD34^+ cells. The assay can be described thus: Differentiative-phase culture (EPO and insulin, 5 additional days) of cells harvested from the proliferative phase, benzidine staining. The format is cell-based, human. The following applies: for frequency of benzidine^pos cells after differentiative phase: independent of priming duration (either 8 or 13 days) with GFs plus the steroid, then EPO and insulin. The method, then:
Light-density cells and CD34^+ cells were cultured for the proliferative phase in Iscove's modified Dulbecco's medium (IMDM, Mascia Brunelli, Milan, Italy) containing 20% of fetal bovine serum (FBS, Hyclone, Logan, Utah) and supplemented with Stem Cell Factor (SCF, 10 ng/mL) (Amgen, Thousand Oaks, Calif.), Erythropoietin (EPO, 1 u/mL) (Epoetina alfa, Dompe Biotec, Milan, Italy), Interleukin-3 (IL-3, 1 ng/mL) (Bouty, Milan, Italy), dexamethasone (10^−6 M) (Sigma), and estradiol (10^−6 M) (Sigma). Light-density and CD34^+ cells were seeded at a concentration of 10^6 and 10^5 cells/mL, respectively.
Cell morphology was analyzed according to standard criteria on cytocentrifuged (Shandon, Astmoor, England) smears stained with May-Grumwald-Giemsa. Hemoglobin-containing cells were identified by benzidine staining (S. H. Orkin, Proc. Natl. Acad. Sci. USA 72, 98-102 (1975)). The cell antigenic profile was analyzed by flow cytometry with a Coulter Elite ESP Cell Sorter (Coulter, Miami, Fla.) according to standard protocols. […] Cells incubated with the corresponding, irrelevant, isotype-matched antibodies were used for gating nonspecific fluorescence and dead cells were excluded by propidium iodide staining (5 μg/mL) (Sigma).
The total cell number observed in cultures of CD34^+ cells cultured for up to 14 days in the presence of the combination of SCF, IL-3 and EPO (growth factors, GFs), alone or with the further addition of estradiol or of dexamethasone, is presented in FIG. 1. In all three conditions analyzed, the total cell number per culture rose from 0.1×10^6 cells at day 0 to 10×10^6 at day 7 and continued to increase, reaching up to 100×10^6 by day 13. […] The total number of erythroid cells obtained at the end of the proliferative-plus-differentiative phase can be calculated by multiplying the total number of cells presented in FIG. 1 by the frequency of benzidinepos cells presented in FIG. 2. […]

For `C[C@@H]1C[C@H]2[C@@H]3CCC4=CC(=O)C=C[C@]4(C)[C@@]3(F)[C@@H](O)C[C@]2(C)[C@@]1(O)C(=O)CO` [dexamethasone], the “percent of benzidine positive cells (mature erythroid cells)” value in assay [1] was under 10%. For the same compound, the “total number of erythroid cells obtained at end of proliferative-plus-differentiative phase” value in assay [2] (differentiation started at day 8 of proliferative phase, total cell number multiplied by benzidine^pos frequency) was ≤ 7×10^6 erythroid cells. The “frequency of benzidine^pos cells after differentiative phase” value in assay [2] was 80-95%.
With `C[C@]12CC[C@@H]3c4ccc(O)cc4CC[C@H]3[C@@H]1CC[C@@H]2O` [estradiol], the “frequency of benzidine^pos cells after differentiative phase” value in assay [2] is reported as 40-60%.
